The values below are quoted from earlier work in doi:10.1101/2023.11.06.565863v1 (bioRxiv, 2023).

Data set [1] concerns R1441C-LRRK2 MEFs.
For data set [2], the system named is R1441C-LRRK2 MEFs. The source holds these as a separate data set.

For the compound `C[C@@H]1CN(c2cc(-c3n[nH]c4ccc(OC5(C)CC5)cc34)ncn2)C[C@H](C)O1` [MLi2], the “Centrosome cohesion defects of R1441C-LRRK2 MEFs vs littermate wildtype MEFs” value in data set [1] was “reverted”. For the same compound, the “Ciliogenesis defects of R1441C-LRRK2 MEFs vs littermate wildtype MEFs” value in data set [2] is given as “reverted”.
